In PubChem BioAssay (NCI):
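48-hour exposure; five concentrations; linearly interpolated endpoints. The concentration for 50% growth inhibition is given as GI50. TGI: concentration producing complete growth inhibition.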

Columns and labels:
Assay in all cases: NCI-60 cell line screen, 48 h
COLO 205 colon = system: COLO 205 colon
EKVX NSCLC = system: EKVX NSCLC
HCT-15 colon = system: HCT-15 colon
LOX IMVI melanoma = system: LOX IMVI melanoma
MOLT-4 leukemia = system: MOLT-4 leukemia
OVCAR-4 ovarian = system: OVCAR-4 ovarian
SF-539 CNS = system: SF-539 CNS
SK-MEL-2 melanoma = system: SK-MEL-2 melanoma
SN12C renal = system: SN12C renal
SW-620 colon = system: SW-620 colon

| Compound | GI50 (COLO 205 colon) | TGI (COLO 205 colon) | GI50 (EKVX NSCLC) | TGI (EKVX NSCLC) | GI50 (HCT-15 colon) | TGI (HCT-15 colon) | GI50 (LOX IMVI melanoma) | TGI (LOX IMVI melanoma) | GI50 (MOLT-4 leukemia) | GI50 (OVCAR-4 ovarian) | TGI (OVCAR-4 ovarian) | GI50 (SF-539 CNS) | TGI (SF-539 CNS) | GI50 (SK-MEL-2 melanoma) | TGI (SK-MEL-2 melanoma) | GI50 (SN12C renal) | TGI (SN12C renal) | GI50 (SW-620 colon) | TGI (SW-620 colon) | TGI (MOLT-4 leukemia) |
| --- | --- | --- | --- | --- | --- | --- | --- | --- | --- | --- | --- | --- | --- | --- | --- | --- | --- | --- | --- | --- |
| CN(C)CCNc1c2c(c(NCCN(C)C)c3c(CO)c[nH]c13)C(=O)c1ccccc1C2=O | 2.74 µM | > 37.5 µM | 3.05 µM | 9.34 µM | 1.96 µM | 10.6 µM | 1.97 µM | 10 µM | 0.371 µM | 2.58 µM | 11.5 µM | 1.96 µM | 4.72 µM | 11.2 µM | 23.2 µM | 1.25 µM | 8.33 µM | 1.87 µM | 7.57 µM | – |
| CC(=O)O[C@H](C[C@H](C(C)C)N(C)C(=O)[C@@H](NC(=O)[C@H]1CCCCN1C)C(C)(C)C)c1nc(C(=O)N[C@@H](Cc2ccccc2)C[C@H](C)C(=O)O)cs1 | < 0.0025 µM | 0.0053 µM | 0.00462 µM | > 25 µM | < 0.0025 µM | > 25 µM | < 0.0025 µM | > 25 µM | < 0.0025 µM | 0.00525 µM | > 25 µM | < 0.0025 µM | 0.0046 µM | < 0.0025 µM | > 25 µM | < 0.0025 µM | > 25 µM | < 0.0025 µM | > 25 µM | > 25 µM |
| Cc1cc(S(=O)(=O)Nc2nc3cc(-c4ccsc4)sc3c(=O)n2N)c(S)cc1Cl | > 100 µM | > 100 µM | > 100 µM | > 100 µM | 59.2 µM | > 100 µM | 60.7 µM | > 100 µM | 68 µM | 69.6 µM | > 100 µM | 67.4 µM | > 100 µM | > 100 µM | > 100 µM | > 100 µM | > 100 µM | > 100 µM | > 100 µM | > 100 µM |
| Cc1ccc(SCC(O)=C2C(=O)CCCC2=O)cc1 | – | > 100 µM | – | > 100 µM | – | > 100 µM | – | > 100 µM | – | – | > 100 µM | – | > 100 µM | – | > 100 µM | – | > 100 µM | – | > 100 µM | > 100 µM |
| C(#Cc1ccccc1C#Cc1ccccn1)c1ccccn1 | 16.9 µM | 46.4 µM | 20.5 µM | 40.2 µM | 11.2 µM | 25 µM | 15.4 µM | 30.9 µM | 3.44 µM | 38 µM | > 100 µM | 21.3 µM | 40.2 µM | 18.4 µM | 36 µM | 18.1 µM | 35.1 µM | 21.2 µM | 56.7 µM | 20.1 µM |
| CC(=O)Nc1cc2cc(NS(=O)(=O)c3cc(C(F)(F)F)cc(C(F)(F)F)c3)ccc2oc1=O | – | > 100 µM | – | > 100 µM | – | > 100 µM | – | > 100 µM | – | – | > 100 µM | – | 96.6 µM | – | > 100 µM | – | > 100 µM | – | > 100 µM | > 100 µM |
| C=C(C)[C@@H]1CC[C@]2(C)[C@H](CC=C3[C@@H]4[C@H](C)[C@@H](C)CC[C@]4(CO)CC[C@]32C)[C@@]1(C)CCCN | 0.899 µM | 1.94 µM | 1.08 µM | 2.94 µM | 0.839 µM | 1.76 µM | 0.859 µM | 1.57 µM | 1.35 µM | 0.86 µM | 2.85 µM | 0.945 µM | 1.73 µM | 1.73 µM | 5.04 µM | 0.839 µM | 1.67 µM | 1.01 µM | 2.11 µM | 4.07 µM |
| Cc1nn2c(/C=C3\C(=O)Nc4ccccc43)c(C)nc2s1 | 5.33 µM | 63.4 µM | 74.1 µM | > 100 µM | 17.1 µM | > 100 µM | 97.1 µM | > 100 µM | 17.5 µM | > 100 µM | > 100 µM | 49.8 µM | > 100 µM | 27.6 µM | > 100 µM | > 100 µM | > 100 µM | 8.87 µM | > 100 µM | > 100 µM |
| COc1cc2c3c(c1OC)Oc1ccc(cc1)CC1c4c(cc(OC)c(OC)c4Oc4ccc(cc4)CC3N(C)CC2)CCN1C (configuration not stated) | – | 26.4 µM | – | > 100 µM | – | – | – | 34.9 µM | – | – | 36.3 µM | – | 28 µM | – | 50.6 µM | – | 49.7 µM | – | 30.4 µM | 63.2 µM |
| CC(=O)OCC(OC(C)=O)C(OC(C)=O)C(OC(C)=O)C(=O)CNn1c(-c2ccccc2Cl)nc2ccc(Br)cc2c1=O (configuration not stated) | – | > 100 µM | – | > 100 µM | – | > 100 µM | – | > 100 µM | – | – | > 100 µM | – | > 100 µM | – | > 100 µM | – | > 100 µM | – | > 100 µM | > 100 µM |
| CCCCCCCCCCCCCCC(O)C1CCC(C(O)CCC(O)CCCCCC(O)CC2=CC(C)OC2=O)O1 (configuration not stated) | – | 8.41 µM | – | 16.2 µM | – | 5.25 µM | – | 4.59 µM | – | – | 8.89 µM | – | 17.8 µM | – | 9.03 µM | – | 9.24 µM | – | 13.9 µM | 3.14 µM |
| O=C(Nc1ccc(-c2ccnc(Nc3ccc(N4CCOCC4)cc3)n2)cc1)C1CCCN1 (configuration not stated) | 5.25 µM | 20.5 µM | 12.5 µM | 33.7 µM | 0.639 µM | 18.9 µM | 2.27 µM | 13.9 µM | 3.04 µM | 12.2 µM | 43.1 µM | 2.33 µM | 14.2 µM | 15.2 µM | 35.8 µM | 4.47 µM | 44 µM | 6.14 µM | 25.1 µM | 33.2 µM |
| C[C@@H](c1ccccc1)N(CC#N)C1CCC[C@H]1O (some centres not stated) | – | > 100 µM | – | > 100 µM | – | > 100 µM | – | > 100 µM | – | – | > 100 µM | – | > 100 µM | – | > 100 µM | – | > 100 µM | – | > 100 µM | > 100 µM |
| CC(C)(O)CCC(O)C(C)(O)C1CCC2(O)C3=CC(=O)C4(O)CC(O)C(O)CC4(C)C3CCC12C (configuration not stated) (tested in a mixture with another compound) | – | > 100 µM | – | > 100 µM | – | > 100 µM | – | > 100 µM | – | – | > 100 µM | – | > 100 µM | – | > 100 µM | – | > 100 µM | – | > 100 µM | > 100 µM |
| O=C(O)c1oc2cccc3c2c1CCC3 | – | > 100 µM | – | > 100 µM | – | > 100 µM | – | > 100 µM | – | – | > 100 µM | – | > 100 µM | – | > 100 µM | – | > 100 µM | – | > 100 µM | > 100 µM |
| COc1ccc(S(=O)(=O)n2c3ccccc3n3ncc(-c4nnc(C)o4)c23)cc1 | 0.376 µM | 17.1 µM | 1.12 µM | > 100 µM | 0.424 µM | > 75.8 µM | 0.561 µM | 26.1 µM | 0.502 µM | 12.7 µM | > 100 µM | 0.361 µM | 7.92 µM | 0.815 µM | 82.1 µM | 0.73 µM | 39.6 µM | 0.394 µM | > 100 µM | > 100 µM |
| O=C(O)c1ccc2cccnc2c1O | 4.23 µM | 10.1 µM | 1.75 µM | > 46 µM | 0.994 µM | > 100 µM | 0.897 µM | 28.4 µM | 1.82 µM | 0.411 µM | > 100 µM | 1.19 µM | 12.8 µM | 1.95 µM | 7.46 µM | 0.797 µM | > 72.2 µM | 2 µM | > 100 µM | > 70.3 µM |
| S=c1[nH]nc(SCc2ccccc2Cl)c2[nH]cnc12 | – | > 100 µM | – | > 100 µM | – | > 100 µM | – | > 100 µM | – | – | > 100 µM | – | > 100 µM | – | > 100 µM | – | > 100 µM | – | > 100 µM | > 100 µM |
| C[C@H]1CCC/C=C/[C@@H]2C[C@H](O)C[C@H]2[C@H](O)[C@@H](SC2OC(CO)C(O)C(O)C2O)CC(=O)O1 (some centres not stated) | 19.4 µM | 41.6 µM | > 100 µM | > 100 µM | > 100 µM | > 100 µM | 35.7 µM | > 100 µM | > 100 µM | 54.1 µM | > 100 µM | 31.9 µM | > 100 µM | > 100 µM | > 100 µM | > 100 µM | > 100 µM | > 100 µM | > 100 µM | > 100 µM |
| O=C(c1ccccc1)c1ccccc1C(=O)c1ccccc1 | 79.5 µM | > 100 µM | 28.6 µM | > 100 µM | 50 µM | > 100 µM | 46 µM | > 100 µM | 32.7 µM | 36.7 µM | > 100 µM | 77.5 µM | > 100 µM | 58.6 µM | > 100 µM | > 100 µM | > 100 µM | 55.8 µM | > 100 µM | > 100 µM |
| N#Cc1c(NCc2ccccc2)nc(NCc2ccccc2)c(C#N)c1-c1cccc(O)c1 | 36.7 µM | > 100 µM | 11.6 µM | 45 µM | 4.33 µM | 33.7 µM | 2.96 µM | 11.5 µM | 3.3 µM | 23.6 µM | > 100 µM | 5.18 µM | 22.1 µM | 6.23 µM | 23 µM | 2.31 µM | 6.69 µM | 4.49 µM | 68.2 µM | > 100 µM |
| CCOC(=O)NC(=O)c1cn(C2OC(CO)C(O)C2O)c(=O)[nH]c1=O (configuration not stated) | – | – | – | > 100 µM | – | > 100 µM | – | > 100 µM | – | – | > 100 µM | – | > 100 µM | – | > 100 µM | – | > 100 µM | – | > 100 µM | > 100 µM |
